{"source": "patent US20070072815A1", "about": "“Methods and kits to increase the efficiency of oligonucleotide-directed nucleic acid sequence alteration” (priority 2004, published 2007)", "key": {"[1]": {"tested_on": "mutant eGFP gene in DLD-1-1 cells", "experiment": "eGFP gene correction (oligonucleotide-directed sequence alteration) in DLD-1-1 cells, FACS readout", "assay_type": "cell-based", "conditions": "for correction efficiency: cells synchronized by double thymidine block, then 10 mM thymidine 24 hours", "procedure": "Cell line and culture conditions: DLD-1 cells are obtained from ATCC (American Type Cell Culture, Manassas, Va.). DLD-1 integrated clone 1 (DLD-1-1) is obtained by integration of the vector pEGFP-N3 containing a single point mutation (TAG) in the eGFP gene, as described in copending U.S. patent application Ser. No. 10/986,418, filed Nov. 10, 2004 (“Mammalian Cell Lines for Detecting, Monitoring, and Optimizing Oligonucleotide-Mediated Chromosomal Sequence Alteration”). Cells are grown in RPMI 1640 medium with 2 mM glutamine, 4.5 g/L glucose, 10 mM HEPES, 1 mM sodium pyruvate and supplemented with 10% FBS. Cells are maintained at 5% CO2, 37° C. and under selection in 200 μg/ml G418 (Gibco, Invitrogen Co., Carlsbad, Calif.).\neGFP gene correction: Cells grown in complete medium supplemented with 10% FBS are trypsinized and harvested by centrifugation. The cell pellet is resuspended in serum-free medium at a density of 1×10^6 cells/100 μl and transferred to a 4 mm gap cuvette (Fisher Scientific, Pittsburgh, Pa.). The oligonucleotide is then added at a concentration of 4 μM and the cells are electroporated (LV, 250V, 13 msec, 2 pulses, 1 second interval) using a BTX ECM830 apparatus (BTX, Holliston, Mass.). The cells are then transferred to a 60 mm dish containing fresh medium supplemented with 10% FBS and incubated for 48 hrs at 37° C. before harvesting for FACS analysis.\nThe percentage of converted cells in a whole population is then calculated by CellQuest™ (Becton Dickinson) and GFP/PI programs. The correction efficiency is determined by dividing the number of eGFP positive cells by the number of cells analyzed in each experiment (usually 50,000 cells). Each clone is tested three times to determine the standard deviation of the correction efficiency, with standard deviation calculated using Microsoft Excel.\nThe experimental strategy involves the introduction of oligonucleotides into DLD-1-clone 1 cells by electroporation followed by phenotypic readout of the corrected eGFP gene, 48 hours later. The correcting oligonucleotide (EGFP3S/72NT) is 72 bases in length (72-mer), complementary to the non-transcribed strand of the mutant eGFP gene but designed to create a single mismatch in the third base of codon 67 (see FIG. 1A). It directs conversion of a TAG→TAC codon which enables phenotypic expression of eGFP, which can be detected by FACS. FIG. 1B outlines the sequence of the target gene, the 72-mer and a nonspecific 74-mer used as a control.\nOligonucleotide-Directed Sequence Alteration: The resulting synchronized populations of cells, and asynchronous controls, are grown in complete medium supplemented with 10% FBS and trypsinzed and harvested by centrifugation at 1500 rpm for 5 minutes. The cell pellet is resuspended in fresh serum-free medium at a density of 2×10^6 cells/100 μl. The entire cell suspension is mixed with 20 μg of EGFP/72NT and transferred into a 4 mm gap cuvette (Fisher Scientific, Pittsburgh, Pa., USA) followed by electroporation with two 250V pulses, each 13 ms in duration, with one second between pulses, unipolar.\nCells are incubated at room temperature for 30 min. […] Frequency of converted cells are calculated by CellQuest™ and GFP/PI programs.\nDouble Thymidine Block: Cells are synchronized in G1 or at the G1/S border by a double thymidine block. Twenty-four hours prior to the addition of any agent (HU, etc.), cells are plated at a density of 0.5×10^6 cells per 100 mm dish, followed by incubation in 2 mM thymidine (Sigma) for 16 hrs, washed and released in fresh medium for 10 hrs, then incubated in 2 mM thymidine for an additional 15 hrs.\nFACS is then used to analyze 50,000 cells from each population to determine the percentage of cells expressing functional eGFP, as described in Example 1."}, "DLD-1-1 cells [2]": {"tested_on": "DLD-1-1 cells", "experiment": "Cell cycle analysis (DNA content by FACS), cells in S phase", "assay_type": "cell-based", "procedure": "(§1) For cell cycle analysis, 1×10^6 cells are plated 24 hrs before the treatment with drugs and after 24 hrs of treatment, cells are trypsinized, resuspended in 300 μl cold PBS and fixed by adding 700 μl cold ethanol. Cells are then resuspended in 1 ml of PBS containing 500 µg/ml RNaseA and […] propidium iodide and analyzed for DNA content.\nThe effect of cell cycle on the efficiency of ODSA is assessed by synchronizing a population of DLD-1-1 cells with mimosine, which arrests cells in early S phase, and serum starvation. Cells are seeded at a density of 0.8×10^6 per 100 mm dish, attached for 20 hours and then cultured in RMPI-1640 medium containing 0.2% fetal bovine serum (FBS). These cells are grown for 48 hours followed by treatment with 0.1 mM mimosine (Sigma, St. Louis, Mo., USA) for 20 hours. Cell are washed twice with PBS and released at various times into fresh medium complemented with 10% FBS before electroporation. Cells are rinsed once with PBS, trypsinized and harvested by centrifugation and resuspended in PBS containing 10 μg/ml propidium iodide, 0.03% Triton-100 and 1 mg/ml RNase. Cells are incubated at room temperature for 1 hour before the measurement of DNA content by FACSCalibur™ flow cytometer. The percentage of cells at various stages of the cell cycle is determined by ModFit L™ software (Verity Software House, Inc., Topsham, Me., USA).\n(§2) The resulting cells are then either analyzed by FACS, or the percentage of cells in S phase is determined by BrdU incorporation. FIG. 8 presents the results of both sets of experiments."}, "[3]": {"tested_on": "mutant allele (A143P) of α-galactosidase A (GLA) in Fabry's cell line DMN-1", "experiment": "Correction efficiency of mutant GLA allele in Fabry's cells", "assay_type": "cell-based, human", "conditions": "VP16 1-50 μM; thymidine 2-50 mM; with or without correcting oligonucleotide", "text": "(§3) Cell line DMN-1, a human fibroblast cell line derived from a human patient with Fabry's disease, is obtained from the National Institutes of Health (NIH). These cells are used to measure the efficiency of correction of a mutant allele of α-galactosidase A (GLA) using methods of the present invention. The specific disease-causing mutation in the Fabry's cell line used herein is A143P, caused by a G→C mutation in the gene. See Branton et al., Medicine (Baltimore) (2002) 81(2): 122-38.\n(§4) All four oligonucleotides are used to effect ODSA substantially as described in Example 1, with the exception that cells are transfected with oligonucleotides, rather than electroporated. Oligos are added at 5 μg, 10 μg or 30 μg per reaction. After ODSA is performed, cells are cultured and assayed for GLA activity according to the method of Brady, as described in Medin et al., Proc. Natl. Acad. Sci. (USA) (1996) 93:7917-22, the disclosure of which is incorporated herein by reference in its entirety. The GLA activity is used as a measure of gene correction by comparing the activities in treated versus untreated cultures. The correction efficiency is subsequently confirmed by sequencing of the locus of mutation in a number of treated cells.\nAs in the previous examples, target cells are treated with HU, VP16 or CPT prior to transfection with the correcting oligonucleotide. Unlike the experiments involving correction of eGFP in DLD-1-1 cells described in Example 1, however, certain of the agents (VPA, caffeine, TSA) in the experiments in this example are not added before transfection, but are instead added only after transfection, during the recovery period.\n(§5) The means of introducing oligonucleotide into the target cells also differs from previous examples, with transfection in the presence of the transfection enhancing agent FuGENE™ 6 (FG) (Roche Diagnostics Corp., Indianapolis, Ind., USA) being used rather than electroporation. Each transfection reaction includes 100 μl of target cells and 12 μl of FG unless otherwise indicated, despite the fact that FG is not explicitly listed for each datapoint in the relevant figures. Otherwise the procedures used in the DLD-1-1 experiments and the Fabry's experiments are similar.\nThe same experiment as described with respect to FIG. 15A is repeated in the presence of various agents and treatments to evaluate whether embodiments of the present invention can increase gene alteration (in this example, correction) efficiency. […] Bars represent the correction efficiencies observed in the various experiments. Unless otherwise indicated, all experiments include 10 μg of 49T/gg in addition to any other agent used to treat the cells."}, "[4]": {"tested_on": "α-galactosidase A (GLA) activity in Fabry's cell line DMN-1", "experiment": "GLA activity in Fabry's cells after ODSA", "assay_type": "cell-based, human", "conditions": "cells synchronized by DTB, 500 μM ddC", "text": "as §3, §4\n[…] Unlike the experiments involving correction of eGFP in DLD-1-1 cells described in Example 1, however, certain of the agents (VPA, caffeine, TSA) in the experiments in this example are not added before transfection, but are instead added only after transfection, during the recovery period.\nas §5\nThe results of a further series of experiments are shown at FIG. 15D, where the data are presented as GLA activity as nanomolar (nM) concentration of the product of the GLA assay generated per hour per unit protein concentration (as are the data in FIGS. D and E)."}, "DLD-1-1 cells [5]": {"tested_on": "DLD-1-1 cells", "experiment": "BrdU incorporation (actively replicating forks)", "assay_type": "cell-based", "conditions": "24 hour treatment; 500 μM ddC, ddI or AraC (FIG. 17B)", "procedure": "as §1, §2\nAs stated above, the lack of stimulation observed in cells treated with AraC could be explained by the reduced number of cells passing through S phase or the absence of actively replicating forks. If true, we might predict that a rise in the gene repair frequency would appear if the cells are released from the AraC block and replication forks are allowed to restart prior to the electroporation of the oligonucleotide. We test this prediction by treating the cells with AraC for 24 hrs and then releasing them by washing out the drug at specific times. We measure the level of BrdU incorporation at the time of electroporation and evaluate the frequency of correction 48 hrs later."}, "DLD-1-1 cells [6]": {"tested_on": "DLD-1-1 cells", "experiment": "Cell viability / cell death by propidium iodide FACS", "quoted_text": "Flow cytometry analysis: eGFP fluorescence of corrected cells is measured by a Becton Dickinson FACSCalibur™ flow cytometer (Becton Dickinson, Rutherford, N.J.). Cells are harvested 48 hrs after electroporation and resuspended in FACS buffer (0.5% BSA, 2 mM EDTA, 2 μg/ml propidium iodide in PBS). More specifically, the program is set for the appropriate cell size (forward scatter versus side scatter) and the population of single-cells is gated for analysis. Using the negative control (minus PI, minus GFP) the background fluorescence was set by positioning the cells in the 10^1 decade of the dot plot by adjusting the voltage for FL1 (GFP) and FL2 (PI). The composition is then set for multi-fluorochrome experiments using a GFP control sample containing no PI and increasing the compensation to bring the signal toward the FL1 parameter. Finally, the last control, PI and no GFP is used to increase the compensation to bring the signal toward the FL2 parameter. Samples of 50,000 cells each are analyzed and those cells being GFP positive and PI negative are scored as corrected cells.\nFor cells that were not previously treated with caffeine, caffeine is added to the media to a final concentration of 4 mM in the 60 mM dish immediately following electroporation (the “recovery phase”). For cells that were pre-treated with caffeine, there is no addition of caffeine during the recovery phase. After 24 hrs of recovery, the media is changed and caffeine (4 mM final concentration) is added back to the culture. After 48 hrs of recovery, the samples are read by FACS: eGFP fluorescence reflects gene alteration (correction), and propidium iodide (PI) staining reflects cellular viability."}, "DNA of DLD-1-1 cells": {"tested_on": "DNA of DLD-1-1 cells", "experiment": "Pulsed-field gel electrophoresis of DNA damage (double strand breaks)", "assay_type": "cell-based", "conditions": "0.75 μM bleomycin or 0.2 μM MMS, 24 hours", "procedure": "The cells are released by trypsinization and melted in the agarose inserts. The agarose inserts are incubated in 0.5M EDTA—1% N-laurosylsarcosine—proteinase K (1 mg/ml) at 50° C. for 48 hrs and then washed four times in TE buffer prior to loading on a 1% agarose gel (Pulse-Field Certified Agarose, Bio-Rad, Hercules, Calif.) and DNA separation by pulsed-field gel electrophoresis is carried out for 24 hrs (Bio-Rad, 120° field angle, 60 to 240s switch time, 4 V/cm). The gel is subsequently stained with ethidium bromide and analyzed with AlphaImager™ 2200. (Alpha Innotech Corp., San Leandro, Calif.).\nThe effects of MMS and bleomycin on oligonucleotide-directed gene alteration are determined as follows. DLD-1-1 cells are seeded in 100 mm dishes at 2×10^6 cells per plate and immediately treated with 0.2 μM MMS or 0.75 μM bleomycin. The cells are then grown for 24 hours, until approximately 50% confluent, and washed twice with PBS. A portion of each population of cells is removed for DNA analysis by pulsed-field electrophoresis, as described in Example 1. The correcting oligo EGFP/72NT (10 μg) is then added and the cells are electroporated as in Example 3. Cells are then analyzed to determine the percentage of cells with corrected eGFP genes as described in Example 3."}, "[7]": {"tested_on": "mutant eGFP gene in DLD-1-1 cells", "experiment": "eGFP gene correction (oligonucleotide-directed sequence alteration) in DLD-1-1 cells, FACS readout", "assay_type": "cell-based", "conditions": "0.2 μM MMS 24 hours before electroporation, 10 μg oligo"}}, "note": "Entries after “also recorded” stand apart in the source; their conditions may differ."}
{"compound": "Cc1cn([C@H]2C[C@H](O)[C@@H](CO)O2)c(=O)[nH]c1=O", "note": "[thymidine]", "values": [{"measurement": "correction efficiency in synchronized cells relative to asynchronous cells", "setting": "[1]; 1 mM HU or 10 mM thymidine, DTB synchronized vs asynchronous", "result": "over seven times"}, {"measurement": "effect of synchronization by double thymidine block on correction efficiency", "setting": "[1]; 2 mM thymidine 16 hrs, release 10 hrs, 2 mM thymidine 15 hrs, no other agent", "result": "increases correction efficiency"}, {"measurement": "effect on correction efficiency in asynchronous cells", "setting": "[1]; 10 mM thymidine 24 hours", "result": "does not enhance correction efficiency"}, {"measurement": "correction efficiency", "setting": "[1]", "result": 7.5, "unit": "%"}, {"measurement": "correction efficiency", "setting": "[1]; listed as Thymidine", "result": "over 7%"}, {"measurement": "proportion of cells in S phase", "setting": "DLD-1-1 cells [2]; after double thymidine block", "result": 1.5, "unit": "%"}, {"measurement": "effect on correction efficiency", "setting": "[3]", "result": "little effect on correction efficiency"}]}
{"compound": "Nc1ccn([C@H]2CC[C@@H](CO)O2)c(=O)n1", "note": "[ddC, 2′3′-dideoxycytidine]", "values": [{"measurement": "increase of GLA activity compared with untreated cells", "setting": "[4]", "result": "approximately two-fold; also recorded: doubles DLA activity"}, {"measurement": "BrdU uptake (cells actively incorporating DNA bases)", "setting": "DLD-1-1 cells [5]", "result": 71.8, "unit": "%"}, {"measurement": "correction levels", "setting": "[1]; cells treated with ddC alone (FIG. 20)", "result": 2.9, "unit": "%"}, {"measurement": "effect on correction efficiency (increase)", "setting": "[1]; ddC 24 hrs before electroporation, 500-750 μM", "result": "more than two-fold; also recorded: approximately two- to three-fold; also recorded: dose-dependent increase"}, {"measurement": "cells in S phase", "setting": "DLD-1-1 cells [2]; 24 hour treatment, 500 μM ddC, ddI or AraC (FIG. 17A)", "result": 70, "unit": "%"}, {"measurement": "toxicity", "setting": "DLD-1-1 cells [6]; ddC levels higher than 750 μM (data not shown)", "result": "cellular toxicity"}]}
{"compound": "COS(C)(=O)=O", "note": "[MMS, methyl methanesulfonate]", "values": [{"measurement": "DNA damage", "setting": "DNA of DLD-1-1 cells", "result": "effect DNA damage"}, {"measurement": "effect on correction efficiency", "setting": "[7]", "result": "more than doubles the correction efficiency; also recorded: doubles correction efficiency"}, {"measurement": "effect on cell death", "setting": "DLD-1-1 cells [6]; 0.2 μM MMS", "result": "Cell death is not increased"}]}
{"compound": "bleomycin", "values": [{"measurement": "DNA damage", "setting": "DNA of DLD-1-1 cells", "result": "effect DNA damage"}]}
